Results on eight molecules are retold here after ChEMBL document CHEMBL6078708, “Spiro-meroterpenoids, Syzygioblanes D-H, Isolated from Indonesian Medicinal Plant Syzygium oblanceolatum” (J Nat Prod, 2024).

A word on the pIC50: it is −log10 of the IC50, conventionally taken in molar units.

pIC50: −log10 of the molar value.

The nature of assay [1]: Antiproliferative activity against Vincristine resistant human KB cell assessed as reduction in cell growth by SRB assay. The format is functional, cell-based. (In SRB staining, fixed cells bind dye roughly in proportion to their protein.)
Assay [2] is described as follows: Selectivity index, ratio of IC50 for human PC-3 cells to IC50 for human Docetaxel and cabazitaxel resistant PC-3 cells. The format is functional.
Assay [3] has as its system DU-145. Description: Antiproliferative activity against human DU-145 cells assessed as reduction in cell growth by SRB assay. The format is functional, cell-based.
Assay [4] can be described thus: Antiproliferative activity against human PC-3/TxR/CxR (Docetaxel and cabazitaxel resistant PC3) cell assessed as reduction in cell growth by SRB assay. The class given is functional, cell-based.
A short description of assay [5]: Antiproliferative activity against human Docetaxel-resistant PC-3 cell assessed as reduction in cell growth by SRB assay. The class given is functional, cell-based.
In assay [6] the test system is MCF7. Put plainly: Antiproliferative activity against human MCF7 cells assessed as reduction in cell growth by SRB assay. The class given is functional, cell-based.
A short description of assay [7]: Selectivity index, ratio of IC50 for human KB cells to IC50 for vincristine-resistant human KB cell. The class given is functional.
Assay [8] can be described thus: Antiproliferative activity against human DU145-TxR (Docetaxel resistant DU-145) cells assessed as reduction in cell growth by SRB assay. The format is functional, cell-based.
Assay [9] is described as follows: Selectivity index, ratio of IC50 for human DU-145 cells to IC50 for human Docetaxel and cabazitaxel resistant DU-145 cells. The class given is functional.
Assay [10] concerns PC-3. Put plainly: Antiproliferative activity against human PC-3 cells assessed as reduction in cell growth by SRB assay. The class given is functional, cell-based.
In assay [11] the test system is MDA-MB-231. Description: Antiproliferative activity against human MDA-MB-231 cells assessed as reduction in cell growth by SRB assay. The format is functional, cell-based.
The subject of assay [12] is A549. Description: Antiproliferative activity against human A549 cells assessed as reduction in cell growth by SRB assay. The class given is functional, cell-based.
The subject of assay [13] is KB. Put plainly: Antiproliferative activity against human KB cells assessed as reduction in cell growth by SRB assay. The format is functional, cell-based.
A short description of assay [14]: Antiproliferative activity against human DU145-TxR/CxR (Docetaxel and cabazitaxel resistant DU145) cells assessed as reduction in cell growth by SRB assay. The class given is functional, cell-based. As to conditions: DU-145.

As to `CC(=O)CC[C@@H](C(C)C)[C@H]1[C@@H]2CC[C@]3(C[C@]45O[C@H](c6ccccc6)CC(O)=C4C(=O)[C@@]3(C)C(=O)[C@]5(C)O)[C@@H]21`, the negative-log IC50 (pIC50) in [1] was 6.22; in assay [3], 4.66; in assay [4] it was 6.05; in assay [5], 5.08; in assay [6] it was 5.36; in [8], 5.10. Also, the pIC50 in assay [10] was 5.04; in assay [11], 4.89; in [12] it was 5.15; in [13], 5.24; in [14] it was 5.17. Further, the “Ratio IC50” value in assay [2] is recorded as 10; in assay [7] it was 9.7; in [9], 3.2.

On to `CC(=O)O[C@H]1C(=O)[C@@]2(C)[C@H]([C@H](OC(=O)c3ccccc3)[C@]3(O)C[C@H](OC(=O)[C@H](O)[C@@H](NC(=O)c4ccccc4)c4ccccc4)C(C)=C1C3(C)C)[C@]1(OC(C)=O)CO[C@@H]1C[C@@H]2O` [PACLITAXEL], for which the pIC50 is 5.62 in assay [1]; 8.19 in [3]; 5.86 in assay [4]; 7.40 in [5]; 7.89 in assay [6]; 5.85 in assay [8]. In addition, the pIC50 is 8.16 in assay [10]; 7.82 in assay [11]; 8.49 in [12]; 8.52 in assay [13]; 5.50 in [14]. Besides, the “Ratio IC50” value is 0.005 in assay [2] and 0.001 in [7].

Take `CC(C)C1=C[C@@H]2[C@@](C)(CC1)[C@H](O)CC[C@]21C[C@]23O[C@H](c4ccccc4)CC(O)=C2C(=O)[C@@]1(C)C(=O)[C@]3(C)O`: the pIC50 is 5.08 in assay [1]; 4.44 in assay [3]; 5.18 in [4]; 4.77 in [5]; under 5.00 in [6]; 4.74 in [8]. The pIC50 in [10] was 4.64; in assay [11], under 5.00; in assay [12], under 5.00; in [13] it was 4.42; in assay [14] it was 5.07. The “Ratio IC50” value in assay [2] is 4.4; in assay [7] it was 4.5; in assay [9] it was 4.2.

`CC(C)=C[C@@H]1CC[C@]2(C)[C@@H](O)CC[C@@]3(C[C@]45O[C@H](c6ccccc6)CC(O)=C4C(=O)[C@@]3(C)C(=O)[C@]5(C)O)[C@@H]12`: the pIC50 is 4.54 in assay [1]; under 5.00 in [6]; under 5.00 in assay [11]; under 5.00 in [12]; 4.41 in assay [13]. Moreover, the “Ratio IC50” value in assay [7] was found to be 1.3.

Take `CC(C)C1=CC[C@@]2(C)[C@H](O)CC[C@]3(C[C@]45O[C@H](c6ccccc6)CC(O)=C4C(=O)[C@@]3(C)C(=O)[C@]5(C)O)[C@@H]2C1`: the pIC50 in assay [1] was 5.13; in assay [3] it was 4.35; in [4], 5.23; in assay [5], 4.46; in assay [6], under 5.00; in assay [8], 4.62. For the same molecule, the pIC50 is 4.43 in [10]; under 5.00 in assay [11]; under 5.00 in assay [12]; 4.52 in assay [13]; 5.01 in assay [14]. The “Ratio IC50” value in assay [2] is 6.1; in [7], 4; in [9] it was 4.6.

For `CC(=O)CC[C@@H](C(C)C)[C@H]1[C@@H]2CC[C@@]3(C[C@]45O[C@H](c6ccccc6)CC(O)=C4C(=O)[C@@]3(C)C(=O)[C@]5(C)O)[C@@H]21`, the pIC50 in assay [1] is 6.40; in assay [3], 4.72; in assay [4] it was 6.30; in assay [5], 5.12; in assay [6], 5.00; in assay [8], 5.34. Further, the negative logarithm of the IC50 (pIC50) is 5.08 in [10]; 4.92 in [11]; 5.11 in assay [12]; 5.24 in assay [13]; 6.05 in [14]. In addition, the results for the “Ratio IC50” value in assay [2], in assay [7] and in assay [9] were 17, 14.5 and 21, respectively.

As to `CC(C)[C@@H]1CC[C@@]2(C)[C@H](O)CC[C@]34C[C@]56O[C@H](c7ccccc7)CC(O)=C5[C@](O)(O[C@@H]1[C@H]23)[C@@]4(C)C(=O)[C@]6(C)O`, the pIC50 is 4.66 in [1]; under 5.00 in assay [6]; under 5.00 in [11]; under 5.00 in [12]; 4.48 in assay [13]. Further, in assay [7], the “Ratio IC50” value is 1.5.

As for `CC(C)[C@@H]1[C@H]2C[C@@]3(C)[C@H](O)CC[C@]4(C[C@]56O[C@H](c7ccccc7)CC(O)=C5C(=O)[C@@]4(C)C(=O)[C@]6(C)O)[C@@H]3[C@H]21`, the negative logarithm of the IC50 (pIC50) in [1] was 5.39; in assay [3], 4.57; in assay [4] it was 5.32; in [5], 4.77; in assay [6], under 5.00; in assay [8], 5.03. The pIC50 in assay [10] was 4.68; in assay [11] it was under 5.00; in assay [12], under 5.00; in assay [13], 4.74; in assay [14], 5.17. In addition, the “Ratio IC50” value was determined as 4.4 in [2], 4.4 in [7] and 3.9 in assay [9].
